Assay results from patent US20260166021A1, “POLYMORPHIC FORMS OF A SOLUBLE EPOXIDE HYDROLASE INHIBITOR AND FORMULATIONS THEREOF” (EicOsis, LLC, priority 2022, published 2026).
Like-named read-outs stand apart in the source and are kept apart here.

Test: Solubility screening of Formula (I) in crystallization solvents at RT and 50° C. (TABLE 3)
Assay type: physicochemical
Settings: for solubility: thermodynamic from solid
Procedure: This example covers crystallization of Formula (I) in multiple solvent systems. Solvents were selected to span a range of polarities, functionalities, and classifications according to the International Conference on Harmonization (ICH) with preferences given to class II and class III solvents. […] After each addition of solvent, the vials were shaken and visually inspected for residual solids. If required, heating to 50° C. or heated to reflux (for low boiling point solvents) for approximately two minutes was performed to ensure complete dissolution. If residual solids remained, additional solvent aliquots were added. The solvent addition was discontinued when complete dissolution was achieved. […]

CC[C@H](C)C(=O)N1CCC(NC(=O)Nc2ccc(OC(F)(F)F)c(F)c2)CC1 [Formula (I), (S)-1-(3-fluoro-4-(trifluoromethoxy)phenyl)-3-(1-(2-methylbutanoyl)piperidin-4-yl)urea]
Soluble? (2-MeTHF, RT, Vol 0.2 mL): Yes | solubility (2-butanone (MEK), organic solvent or mixture, MEK, RT, read-out: Nominal Solubility): 50.4 mg/mL | solubility (2-butanone (MEK), organic solvent or mixture, MEK, RT, read-out: Solubility Range): ≥ 50.4 mg/mL | solubility (2-methyltetrahydrofuran (2-MeTHF), organic solvent or mixture, 2-MeTHF, RT, read-out: Nominal Solubility): 25.2 mg/mL | solubility (2-methyltetrahydrofuran (2-MeTHF), organic solvent or mixture, 2-MeTHF, RT, read-out: Solubility Range): 25.2 to 50.4 mg/mL | Soluble? (ACN, RT, Vol 0.1 mL): Yes | Soluble? (Acetone, RT, Vol 0.1 mL): Yes | Soluble? (DCM, RT, Vol 0.1 mL): Yes | solubility (DMF, organic solvent or mixture, DMF, RT, read-out: Nominal Solubility): 46.1 mg/mL | solubility (DMF, organic solvent or mixture, DMF, RT, read-out: Solubility Range): ≥ 46.1 mg/mL | Soluble? (DMF, RT, Vol 0.1 mL): Yes | solubility (DMSO, organic solvent or mixture, DMSO, RT, read-out: Nominal Solubility): 47.8 mg/mL | solubility (DMSO, organic solvent or mixture, DMSO, RT, read-out: Solubility Range): ≥ 47.8 mg/mL | Soluble? (DMSO, RT, Vol 0.1 mL): Yes | Soluble? (Dioxane, RT, Vol 0.5 mL): Yes | Soluble? (EtOAc, RT, Vol 0.1 mL): Yes | Soluble? (EtOH, RT, Vol 0.1 mL): Yes | Soluble? (IPA, RT, Vol 0.1 mL): Yes | Soluble? (IPAC, RT, Vol 0.2 mL): Yes | Soluble? (MEK, RT, Vol 0.1 mL): Yes | Soluble? (MIBK, RT, Vol 0.1 mL): Yes | Soluble? (MTBE, 50° C., Vol 1.0 mL): Yes | Soluble? (MeOH, RT, Vol 0.1 mL): Yes | solubility (NMP, organic solvent or mixture, NMP, RT, read-out: Nominal Solubility): 55.2 mg/mL | solubility (NMP, organic solvent or mixture, NMP, RT, read-out: Solubility Range): ≥ 55.2 mg/mL | Soluble? (NMP, RT, Vol 0.1 mL): Yes | Soluble? (THF, RT, Vol 0.1 mL): Yes | Soluble? (Toluene, 50° C., Vol 0.5 mL): Yes | Soluble? (Water, 50° C., Vol 4.0 mL): No | solubility (acetone, organic solvent or mixture, Acetone, RT, read-out: Nominal Solubility): 43.7 mg/mL | solubility (acetone, organic solvent or mixture, Acetone, RT, read-out: Solubility Range): ≥ 43.7 mg/mL | solubility (acetonitrile (ACN), organic solvent or mixture, ACN, RT, read-out: Nominal Solubility): 48.3 mg/mL | solubility (acetonitrile (ACN), organic solvent or mixture, ACN, RT, read-out: Solubility Range): ≥ 48.3 mg/mL | Soluble? (c-Hexane, 50° C., Vol 4.0 mL): No | solubility (c-hexane, 50 °C, organic solvent or mixture, c-Hexane, 50° C., read-out: Solubility Range): < 1.17 mg/mL | solubility (cyclohexane (c-hexane), 50 °C, organic solvent or mixture, c-Hexane, 50° C., read-out: Nominal Solubility): < 1.17 mg/mL | solubility (dichloromethane (DCM), organic solvent or mixture, DCM, RT, read-out: Nominal Solubility): 46.6 mg/mL | solubility (dichloromethane (DCM), organic solvent or mixture, DCM, RT, read-out: Solubility Range): ≥ 46.6 mg/mL | solubility (dioxane, organic solvent or mixture, Dioxane, RT, read-out: Nominal Solubility): 9.36 mg/mL | solubility (dioxane, organic solvent or mixture, Dioxane, RT, read-out: Solubility Range): 9.36 to 23.4 mg/mL | solubility (ethanol, organic solvent or mixture, EtOH, RT, read-out: Nominal Solubility): 41.2 mg/mL | solubility (ethanol, organic solvent or mixture, EtOH, RT, read-out: Solubility Range): ≥ 41.2 mg/mL | solubility (ethyl acetate (EtOAc), organic solvent or mixture, EtOAc, RT, read-out: Nominal Solubility): 54.3 mg/mL | solubility (ethyl acetate (EtOAc), organic solvent or mixture, EtOAc, RT, read-out: Solubility Range): ≥ 54.3 mg/mL | solubility (isopropanol (IPA), organic solvent or mixture, IPA, RT, read-out: Nominal Solubility): 56 mg/mL | solubility (isopropanol (IPA), organic solvent or mixture, IPA, RT, read-out: Solubility Range): ≥ 56 mg/mL | solubility (isopropyl acetate (IPAc), organic solvent or mixture, IPAC, RT, read-out: Nominal Solubility): 23.4 mg/mL | solubility (isopropyl acetate (IPAc), organic solvent or mixture, IPAC, RT, read-out: Solubility Range): 23.4 to 46.7 mg/mL | solubility (methanol, organic solvent or mixture, MeOH, RT, read-out: Nominal Solubility): 43.2 mg/mL | solubility (methanol, organic solvent or mixture, MeOH, RT, read-out: Solubility Range): ≥ 43.2 mg/mL | solubility (methyl isobutyl ketone (MIBK), organic solvent or mixture, MIBK, RT, read-out: Nominal Solubility): 48 mg/mL | solubility (methyl isobutyl ketone (MIBK), organic solvent or mixture, MIBK, RT, read-out: Solubility Range): ≥ 48 mg/mL | solubility (methyl tert-butyl ether (MTBE), 50 °C, organic solvent or mixture, MTBE, 50° C., read-out: Nominal Solubility): 5.68 mg/mL | solubility (methyl tert-butyl ether (MTBE), 50 °C, organic solvent or mixture, MTBE, 50° C., read-out: Solubility Range): 5.68 to 11.4 mg/mL | Soluble? (n-BuOH, RT, Vol 0.1 mL): Yes | Soluble? (n-Heptane, 50° C., Vol 4.0 mL): No | Soluble? (n-Propanol, RT, Vol 0.1 mL): Yes | solubility (n-butanol (n-BuOH), organic solvent or mixture, n-BuOH, RT, read-out: Nominal Solubility): 42.6 mg/mL | solubility (n-butanol (n-BuOH), organic solvent or mixture, n-BuOH, RT, read-out: Solubility Range): ≥ 42.6 mg/mL | solubility (n-heptane, 50 °C, organic solvent or mixture, n-Heptane, 50° C., read-out: Nominal Solubility): < 1.32 mg/mL | solubility (n-heptane, 50 °C, organic solvent or mixture, n-Heptane, 50° C., read-out: Solubility Range): < 1.32 mg/mL | solubility (n-propanol, organic solvent or mixture, n-Propanol, RT, read-out: Nominal Solubility): 52.2 mg/mL | solubility (n-propanol, organic solvent or mixture, n-Propanol, RT, read-out: Solubility Range): ≥ 52.2 mg/mL | solubility (tetrahydrofuran (THF), organic solvent or mixture, THF, RT, read-out: Nominal Solubility): 48 mg/mL | solubility (tetrahydrofuran (THF), organic solvent or mixture, THF, RT, read-out: Solubility Range): ≥ 48 mg/mL | solubility (toluene, 50 °C, organic solvent or mixture, Toluene, 50° C., read-out: Nominal Solubility): 10 mg/mL | solubility (toluene, 50 °C, organic solvent or mixture, Toluene, 50° C., read-out: Solubility Range): 10 to 25 mg/mL | solubility (water, 50 °C, water, Water, 50° C., read-out: Nominal Solubility): < 1.36 mg/mL | solubility (water, 50 °C, water, Water, 50° C., read-out: Solubility Range): < 1.36 mg/mL
